Source: EP0035619B1, “Derivatives of 3-amino-(1H,3H)-2,4-quinazolin-diones” (BERRI-BALZAC Société dite:, priority 1980, dated 1981)

Columns and labels:
Assay type in all cases: in vivo
[1] = system: souris Swiss; test: Acute toxicity (LD50) in Swiss mice
Method: Les toxicités aiguës ont été déterminées sur la souris Swiss.
Par exemple, pour le composé de l'exemple 3, la DL50 par voie IP est de 250 mg et per os de 225 mg.

[2] = system: rat vigile; test: Diuretic action in the conscious rat with i.p. isotonic sodium chloride load; conditions: mean increase of diuresis versus mean of controls
Method: L'action diurétique est mesurée sur le rat vigile traité par 25 ou 50 mg/kg de substance à tester prise par voie orale ou intrapéritonéale et recevant une injection I.P. de soluté isotonique de chlorure de sodium au début de l'essai. Les rats sont groupés par trois et les expériences sont répétées en croisant les lots de rats.
La diurèse est exprimée par le pourcentage de l'augmentation moyenne de la diurèse par rapport à la moyenne des témoins.
L'action diurétique est mesurée sur le rat vigile traité par 25 ou 50 mg/kg de substance à tester prise par voie orale ou intrapéritonéale et recevant une injection IP de soluté isotonique de chlorure de sodium au début de l'essai. Les rats sont groupés par trois et les expériences sont répétées en croisant les lots de rats.

[3] = system: souris; test: Sedative action: sedation index (hole-board exploration, hypothermia, mobility, agility)
Excerpt: L'action sédative est mesurée par un indice de sédation. Cet indice de sédation tient compte du pourcentage, chez la souris, de la diminution de l'exploration de la planche à trous par rapport à des témoins, de l'hypothermie, de la mobilité, de l'agilité. Les résultats pour le composé de l'exemple 3, sont donnés au Tableau Il.
L'action sédative est mesurée par un indice de sédation. Cet indice de sédation tient compte du pourcentage, chez la souris, de la diminution de l'exploration de la planche à trous par rapport à des témoins, de l'hypothermie, de la mobilité, de l'agilité. Les résultats pour le composé de l'exemple 3 sont donnés au Tableau II.

[4] = Potentiation of psychotropic drugs (Nembutal, Chlorpromazine, morphine) and antagonism of amphetamine
Excerpt: D'autre part, il faut noter une potentialisation par les composés de formule (I) des psychotropes : Nembutal, Chlorpromazine, morphine, et un antagoniste de l'amphétamine. A titre d'exemple, le composé de l'exemple 3 potentialise l'effet hypnotique du Nembutal de + 146 %, celui de la Chlorpromazine de + 50 % et celui de la morphine de 40 %. Par contre, il antagonise à 70 % les effets de l'amphétamine.
D'autre part, il faut noter une potentialisation par les composés de formule (I) des psychotropes : Nembutal, Chlorpromazine, morphine et un antagoniste de l'amphétamine. A titre d'exemple, le composé de l'exemple 3 potentialise l'effet hypnotique du Nembutal de + 146 %, celui de la Chlorpromazine de + 50 % et celui de la morphine de 40 %. Par contre, il antagonise à 70 % les effets de l'amphétamine.

In the case of CN(C)n1c(=O)c2ccccc2n(C)c1=O [Exemple 3, diméthylamino-3 méthyl-1 (1 H, 3H) quinazolinedione-2,4], the DL50 ([1]; par voie IP) is reported as 250 mg, the DL50 ([1]; per os) is reported as 225 mg and the Diurèse ([2]; 25 mg/kg par voie IP) is reported as 60%. It also gave a Diurèse ([2]; 25 mg/kg par voie orale) of 77%, a Diurèse ([2]; 50 mg/kg par voie IP) of 200% and a Diurèse ([2]; 50 mg/kg par voie orale) of 200%. For the same compound, the “Indice de sédation” value ([3]; 50 mg/kg per os) was 76, the “Indice de sédation” value ([3]; 100 mg/kg per os) was 164 and the “Indice de sédation chimique” value ([3]; 100 mg/kg per os) was 179. For the same compound, the “Indice de sédation” value ([3]; 100 mg/kg voie I.P.) was 236, the “potentialise l'effet de la Chlorpromazine” value ([4]; with Chlorpromazine) was 50% and the “potentialise l'effet hypnotique du Nembutal” value ([4]; with Nembutal) was 146%. For the same compound, the “antagonise les effets de l'amphétamine” value ([4]; with amphétamine) was 70% and the “potentialise l'effet de la morphine” value ([4]; with morphine) was 40%.
